US8377945B2, “Small molecule inhibitors of spleen tyrosine kinase (SYK)” (Rigel Pharmaceuticals Inc., priority 2009, dated 2013)

What was measured:
[1] = biological target: T1, Syk kinase (Homo sapiens, UniProt P43405); test: ELISA-based Syk kinase assay (phosphorylation of HS1 peptide substrate by isolated Syk kinase); format: biochemical; conditions: IC50 of Syk kinase inhibition; 2 μM ATP, 2 μM peptide substrate
T1 construct: purchased Millipore 14-314
Procedure: Compounds were tested for the ability to inhibit Syk kinase catalyzed phosphorylation of a peptide substrate in an assay with isolated Syk kinase.
An assay was carried out in a Costar white 96 well plate (Fisher Scientific, Cat No. 07-200-591) coated overnight with 0.01 mg/ml Neutravidin (Pierce, 100 μl/well) at 4° C. Neutravidin pre-coated 96 well plates were blocked with 2% BSA in PBST buffer for at least 1 hour before starting the assay at room temperature. Serially diluted compound stock solution containing a subject compound was prepared separately in DMSO solution starting from 300 μM and 2 μl of this diluted compound (3% DMSO final concentration) was added directly to neutravidin coated assay plate containing 55.5 μl/well of kinase reaction buffer composed of 20 mM HEPES, pH 7.4, 5 mM MgCl2, 2 mM MnCl2, 1 mM DTT, 0.01% Tween 20 pre-mixed with ATP and kinase substrate (HS1 peptide). Reaction was initiated by adding of 2.5 μl/well Syk kinase (Millipore, Cat No. 14-314) resulting in a final reaction volume of 60 μl and then the reaction was allowed to continue for 30 minutes at room temperature. Final enzyme reaction conditions were 20 mM HEPES, pH 7.4, 5 mM MgCl2, 2 mM MnCl2, 1 mM DTT, 0.01% Tween 20, 0.25 ng Syk, 2 μM ATP, 2 μM peptide substrate (Biotin-EQEDEPEGDYEEVLE-CONH2, SynPep Corporation). After completing the reaction, assay plate was washed three times with PBST and incubated for 1 hour at room temperature with 100 μl/well of phosphopeptide detection antibody solution prepared by mixing 1-1000 diluted mouse anti-pTyr monoclonal antibody (Cell Signal Technology, Cat No. 9411) and 1-1000 diluted goat HRP-conjugated anti-mouse IgG (Jackson Immunoresearch, Cat. No. 115-035-003). Before developing the plate with supersignal ELISA pico chemiluminescent substrate (Pierce), plate was washed three times again with PBST and were read on a SpectraMax M5 microplate reader (Moleculear Devices).

[2] = system: Human mast cells (CHMC cells); test: Tryptase release assay (mast cell degranulation induced by anti-IgG FcγR cross-linking); format: cell-based; conditions: IC50 of tryptase release from human mast cells after anti-IgG stimulation, read-out: LD Tryptase
Procedure: Compounds were assayed for inhibition of mast cell activation induced by FcγR cross-linking by measuring the activity of tryptase released upon degranulation as follows:
Human mast cells were cultured and differentiated from […] progenitor cell as described in U.S. Patent Publication No. 2005-234049, incorporated herein by reference. For example, 65 μl of various concentrations of the compound to be assayed were prepared in MT (137 mM NaCl, 2.7 mM KCl, 1.8 mM CaCl2, 1.0 mM MgCl2, 5.6 mM Glucose, 20 mM Hepes (pH 7.4), 0.1% Bovine Serum Albumin, (Sigma A4503)) containing 2% MeOH and 1% DMSO, or control buffer were added to duplicate 96-well V-bottom plates. Pelleted and resuspended (in warm MT) CHMC cells (65 μl) were added to each 96-well plate, mixed and incubated for 1 hour at 37° C. 25 μl of 6× anti-IgG Rabbit anti-human IgG, Affinity purified (Bethyl Laboratories Cat No. A80-105A3) final concentration 1 μg/ml, was added to the test wells. MT (25 μl) was added to control wells. After a 60-minute incubation at 37° C., cells and cell debris were pelleted by centrifugation at 1000 rpm for 10 min and tryptase and leukotriene C4 levels were measured.
To measure tryptase levels, 25 μl of supernatant from each well was transferred to a fresh 96-well black bottom plate, to which 100 μl of fresh tryptase substrate solution [(Z-Ala-Lys-Arg-AMC2TFA; Enzyme Systems Products, #AMC-246)] 1:2000 in tryptase assay buffer [0.1 M Hepes (pH 7.5), 10% w/v Glycerol, 10 μM Heparin (Sigma H-4898) 0.01% NaN3] was added. After 30 minute incubation at room temperature, the optical density of the plates is measured at 355 nm/460 nm on a spectrophotometric plate reader. Table 2 provides the IC50 values.

Row | SMILES | IC50 [1] [µM] | IC50 [2] [µM]
1 | COc1ccc(Nc2c(-c3ccc(Oc4ccccc4)cc3)[nH]c3c(C#N)cnn23)cc1OC [Compound 8] | 3 to 25 | < 10
2 | COc1cc(Nc2c(-c3ccc(OC)c(OC4CCCC4)c3)[nH]c3c(C#N)cnn23)ccc1F [Compound 119] | 0.51 to 2.99 | < 10
3 | COc1ccc(Nc2c(-c3ccc(NC(C)=O)cc3)[nH]c3c(C#N)cnn23)cc1OC [Compound 2] | 0.51 to 2.99 | < 10
4 | COCCOc1ccc(-c2[nH]c3c(C#N)cnn3c2Nc2ccc(F)c(OC)c2)cc1OC [Compound 122] | 0.51 to 2.99 | < 10
5 | COc1cc(-c2[nH]c3c(C#N)cnn3c2Nc2ccc(OC(C)C)c(Cl)c2)cc(OC)c1OC [Compound 141] | 0.51 to 2.99 | < 10
6 | COc1cc(-c2[nH]c3c(C#N)cnn3c2Nc2ccc(CNC(=O)c3cccnc3C)cc2)cc(OC)c1OC [Compound 152] | < 0.5 | > 5000
7 | COc1cc(Nc2c(-c3cc(OC)c(OC)c(OC)c3)[nH]c3c(C#N)cnn23)ccc1F [Compound 87] | < 0.5 | < 10
8 | COc1cc(-c2[nH]c3c(C#N)cnn3c2Nc2cc(F)c(OC)c(F)c2)cc(OC)c1OC [Compound 143] | < 0.5 | < 10
9 | COc1ccc(Nc2c(-c3ccc(N4CCOCC4)cc3)[nH]c3c(C#N)cnn23)cc1OC [Compound 104] | 0.51 to 2.99 | < 10
10 | COc1ccc2[nH]cc(-c3[nH]c4c(C#N)cnn4c3Nc3ccc(OC)c(OC)c3)c2c1 [Compound 4] | 0.51 to 2.99 | < 10
11 | CSc1ccc(-c2[nH]c3c(C#N)cnn3c2Nc2cccc(NC(C)=O)c2)cc1 [Compound 33] | 0.51 to 2.99 | < 10
12 | COc1cc(-c2[nH]c3c(C#N)cnn3c2Nc2ccc3c(c2)OCCO3)cc(OC)c1OC [Compound 49] | 0.51 to 2.99 | < 10
13 | COc1cc(-c2[nH]c3c(C#N)cnn3c2Nc2cccc(CNC(=O)c3cccnc3)c2)cc(OC)c1OC [Compound 146] | 0.51 to 2.99 | 11 to 100
14 | COc1ccc(Nc2c(-c3cc(C)c(OC)c(C)c3)[nH]c3c(C#N)cnn23)cc1OC [Compound 136] | 0.51 to 2.99 | < 10
15 | COc1ccc(-c2[nH]c3c(C#N)cnn3c2Nc2cccc(NC(C)=O)c2)cc1OC [Compound 32] | 0.51 to 2.99 | < 10
16 | COC(=O)COc1ccc(-c2[nH]c3c(C#N)cnn3c2Nc2ccc3c(c2)OCCO3)cc1OC [Compound 85] | < 0.5 | < 10
17 | COc1cc(-c2[nH]c3c(C#N)cnn3c2Nc2ccc(F)c(OC3CCCC3)c2)cc(OC)c1OC [Compound 145] | 0.51 to 2.99 | < 10
18 | COc1cc(-c2[nH]c3c(C#N)cnn3c2Nc2ccc3c(c2)NC(=O)CO3)cc(OC)c1OC [Compound 137] | < 0.5 | < 10
19 | COc1cc(-c2[nH]c3c(C#N)cnn3c2Nc2ccc(F)c(C)c2)cc(OC)c1OC [Compound 120] | 0.51 to 2.99 | < 10
20 | N#Cc1cnn2c(Nc3ccc(Br)cc3)c(-c3ccc(C(N)=O)cc3)[nH]c12 [Compound 98] | 0.51 to 2.99 | 101 to 5000
21 | COc1ccc(Nc2c(-c3ccc(OCC(=O)NC4CC4)c(OC)c3)[nH]c3c(C#N)cnn23)cc1OC [Compound 140] | < 0.5 | < 10
22 | COc1cc(Nc2c(-c3ccc4c(c3)NC(=O)CO4)[nH]c3c(C#N)cnn23)ccc1F [Compound 109] | 0.51 to 2.99 | 11 to 100
23 | COc1cccc(Nc2c(-c3cc(OC)c(OC)c(OC)c3)[nH]c3c(C#N)cnn23)c1 [Compound 14] | 0.51 to 2.99 | < 10
24 | COc1cc(-c2[nH]c3c(C#N)cnn3c2Nc2ccc(CNC(=O)c3ccc(C#N)nc3)cc2)cc(OC)c1OC [Compound 151] | 0.51 to 2.99 | > 5000

Row | SMILES | IC50 [1] [µM] | IC50 [2] [µM]
25 | N#Cc1cnn2c(Nc3ccc(N4CCOCC4)cc3)c(-c3ccc4c(c3)NC(=O)CO4)[nH]c12 [Compound 43] | 3 to 25 | 11 to 100
26 | COc1ccc(Nc2c(-c3ccc(OCCO)c(OC)c3)[nH]c3c(C#N)cnn23)cc1OC [Compound 101] | 0.51 to 2.99 | < 10
27 | COc1ccc(Nc2c(-c3ccc(S(C)(=O)=O)cc3)[nH]c3c(C#N)cnn23)cc1OC [Compound 48] | 0.51 to 2.99 | < 10
28 | COc1cc(-c2[nH]c3c(C#N)cnn3c2Nc2ccc(F)c(F)c2)cc(OC)c1OC [Compound 64] | 0.51 to 2.99 | < 10
29 | COc1ccc(Nc2c(-c3ccc(OCC(N)=O)c(OC)c3)[nH]c3c(C#N)cnn23)cc1OC [Compound 135] | < 0.5 | < 10
30 | COc1ccc(Nc2c(-c3ccc(OCCN4CCCC4=O)cc3)[nH]c3c(C#N)cnn23)cc1OC [Compound 107] | 0.51 to 2.99 | < 10
31 | CC(=O)Nc1cccc(Nc2c(-c3ccc4cc[nH]c4c3)[nH]c3c(C#N)cnn23)c1 [Compound 47] | 0.51 to 2.99 | < 10
32 | COc1cc(Nc2c(-c3cc(OC)c(OC)c(OC)c3)[nH]c3c(C#N)cnn23)cc(OC)c1 [Compound 142] | < 0.5 | < 10
33 | COc1cccc(Nc2c(-c3ccc4cc[nH]c4c3)[nH]c3c(C#N)cnn23)c1 [Compound 44] | 3 to 25 | < 10
34 | CCOc1cc(Nc2c(-c3cc(OC)c(OC)c(OC)c3)[nH]c3c(C#N)cnn23)ccc1F [Compound 144] | 0.51 to 2.99 | < 10
35 | COc1ccc2c(-c3[nH]c4c(C#N)cnn4c3Nc3ccc(OC)c(OC)c3)c[nH]c2c1 [Compound 24] | 0.51 to 2.99 | < 10
36 | COC(=O)COc1ccc(-c2[nH]c3c(C#N)cnn3c2Nc2ccc(OC)c(OC)c2)cc1 [Compound 113] | 0.51 to 2.99 | < 10
37 | COc1cc(Nc2c(-c3ccc(OCCO)c(OC)c3)[nH]c3c(C#N)cnn23)ccc1F [Compound 116] | < 0.5 | < 10
38 | COc1cc(-c2[nH]c3c(C#N)cnn3c2Nc2ccc(N3CCOCC3)cc2)cc(OC)c1OC [Compound 25] | 0.51 to 2.99 | < 10
39 | COc1ccc(Nc2c(-c3cccc(O)c3)[nH]c3c(C#N)cnn23)cc1OC [Compound 112] | 0.51 to 2.99 | < 10
40 | COc1cc(-c2[nH]c3c(C#N)cnn3c2Nc2cccc(CNC(=O)c3ccccn3)c2)cc(OC)c1OC [Compound 147] | < 0.5 | < 10
41 | COc1cc(-c2[nH]c3c(C#N)cnn3c2Nc2ccc(CNC(C)=O)cc2)cc(OC)c1OC [Compound 72] | 0.51 to 2.99 | < 10
42 | COc1cc(-c2[nH]c3c(C#N)cnn3c2Nc2ccc(CNC(=O)c3ccccn3)cc2)cc(OC)c1OC [Compound 149] | 0.51 to 2.99 | < 10
43 | CC(=O)Nc1ccc(-c2[nH]c3c(C#N)cnn3c2Nc2cccc(C(F)(F)F)c2)cc1 [Compound 3] | 0.51 to 2.99 | 11 to 100
44 | COc1cc(-c2[nH]c3c(C#N)cnn3c2Nc2ccc(SC)c(F)c2)cc(OC)c1OC [Compound 157] | < 0.5 | 11 to 100
45 | COc1cc(-c2[nH]c3c(C#N)cnn3c2Nc2cccc(OC(F)(F)F)c2)cc(OC)c1OC [Compound 110] | 0.51 to 2.99 | 
46 | COc1cccc(CNc2c(-c3cc(OC)c(OC)c(OC)c3)[nH]c3c(C#N)cnn23)c1 [Compound 46] | 3 to 25 | 
47 | COC(=O)c1cccc(Nc2c(-c3cc(Cl)c(OC)c(OC)c3)[nH]c3c(C#N)cnn23)c1 [Compound 78] | 3 to 25 | 
